Test results reported in patent US20070243321A1, “Aqueous Bitumen Emulsion” (Eiffage Travaux Publics, priority 2004, published 2007).

Test: Measurement of surface tension and critical micellar concentrations (rising drop tensiometer)
Type: physicochemical
Settings: for CMC: critical micellar concentration; for γcmc: surface tension at the CMC, rising drop
Experimental: Measurement of Surface Tension and Critical Micellar Concentrations The tensiometric measurements were carried out with a drop tensiometer operating by the method of the rising drop ([…] tensiometer, I.T. CONCEPT).

Row | Molecule | CMC | γcmc
1 | CCCCCCCCCCCCOS(=O)(=O)[O-].[Na+] [SDS (C12), reference compound] | 8000 µM | 30.0 mN/m
2 | betainylaminooctadecane mesylate [Amides C18:0] | 140 µM | 36.0 mN/m
3 | octadecyl betaine mesylate [Esters C18:0] | 800 µM | 37.2 mN/m
